Data from publication PMC5218480 (PLoS ONE, 2017).

System: MV-4-11 cells
Assay: Gene expression microarray analysis (Affymetrix PrimeView) and GSEA
Assay type: cell-based, human
Parameters: RFU PODN (11730768_x_at) / Fold change /veh PODN (11730768_x_at) / RFU LINC00158 (11744669_a_at) / Fold change /veh LINC00158 (11744669_a_at) / RFU DUSP10 (11751237_a_at) / Fold change /veh DUSP10 (11751237_a_at) / RFU ID3 (11757404_x_at) / Fold change /veh ID3 (11757404_x_at) / RFU PLEKHG5 (11737974_s_at) / Fold change /veh PLEKHG5 (11737974_s_at) / RFU LRRC4B (11730491_at) / Fold change /veh LRRC4B (11730491_at) / RFU GIMAP4 (11747438_a_at) / Fold change /veh GIMAP4 (11747438_a_at) / RFU KRT8 (11758183_x_at) / Fold change /veh KRT8 (11758183_x_at) / RFU CNN1 (11734310_a_at) / Fold change /veh CNN1 (11734310_a_at) / RFU VPS37D (11726825_at) / Fold change /veh VPS37D (11726825_at) / RFU C10orf10 (11716522_x_at) / Fold change /veh C10orf10 (11716522_x_at) / RFU KIR2DL2 /// KIR2DL4 /// KIR2DL5A /// KIR2DL5B /// KIR2DS1 /// KIR2DS2 /// KIR2DS3 /// KIR2DS4 /// KIR3DL3 /// KIR3DL3 /// KIR3DS1 (11738374_at) / Fold change /veh KIR2DL2 /// KIR2DL4 /// KIR2DL5A /// KIR2DL5B /// KIR2DS1 /// KIR2DS2 /// KIR2DS3 /// KIR2DS4 /// KIR3DL3 /// KIR3DL3 /// KIR3DS1 (11738374_at) / RFU C1QL1 (11718748_at) / Fold change /veh C1QL1 (11718748_at) / RFU TMPRSS4 (11747572_a_at) / Fold change /veh TMPRSS4 (11747572_a_at) / RFU HAMP (11756126_x_at) / Fold change /veh HAMP (11756126_x_at) / RFU RNFT2 (11725882_a_at) / Fold change /veh RNFT2 (11725882_a_at) / RFU NR4A2 (11747474_a_at) / Fold change /veh NR4A2 (11747474_a_at) / RFU ABCC12 (11746883_a_at) / Fold change /veh ABCC12 (11746883_a_at) / RFU TMEM136 (11760407_x_at) / Fold change /veh TMEM136 (11760407_x_at) / RFU CLDN22 /// WWC2 (11732394_at) / Fold change /veh CLDN22 /// WWC2 (11732394_at) / RFU HLA-DPB1 (11760878_x_at) / Fold change /veh HLA-DPB1 (11760878_x_at) / RFU SPINT1 (11716480_a_at) / Fold change /veh SPINT1 (11716480_a_at) / RFU GAP43 (11754022_s_at) / Fold change /veh GAP43 (11754022_s_at) / RFU A4GNT (11735810_at) / Fold change /veh A4GNT (11735810_at) / RFU PRB3 (11715151_x_at) / Fold change /veh PRB3 (11715151_x_at) / RFU TUBB4B (11761932_at) / Fold change /veh TUBB4B (11761932_at) / RFU CAPN14 (11732068_a_at) / Fold change /veh CAPN14 (11732068_a_at) / RFU TMCC2 (11721928_a_at) / Fold change /veh TMCC2 (11721928_a_at) / RFU IRGQ (11745062_a_at) / Fold change /veh IRGQ (11745062_a_at) / RFU FAM174B (11720279_a_at) / Fold change /veh FAM174B (11720279_a_at) / RFU TMPRSS4 (11748680_a_at) / Fold change /veh TMPRSS4 (11748680_a_at) / RFU FAM212B (11763350_a_at) / Fold change /veh FAM212B (11763350_a_at) / RFU PLEKHG5 (11743358_a_at) / Fold change /veh PLEKHG5 (11743358_a_at) / RFU ZSCAN30 (11745921_a_at) / Fold change /veh ZSCAN30 (11745921_a_at) / RFU CMKLR1 (11741424_a_at) / Fold change /veh CMKLR1 (11741424_a_at) / RFU LOC101060620 /// MAPK8IP1 (11723275_at) / Fold change /veh LOC101060620 /// MAPK8IP1 (11723275_at) / RFU SPTSSB (11747773_x_at) / Fold change /veh SPTSSB (11747773_x_at) / RFU PRSS12 (11739890_at) / Fold change /veh PRSS12 (11739890_at) / RFU BIN1 (11741810_x_at) / Fold change /veh BIN1 (11741810_x_at) / RFU WNT11 (11732464_a_at) / Fold change /veh WNT11 (11732464_a_at) / RFU C10orf10 (11716521_a_at) / Fold change /veh C10orf10 (11716521_a_at) / RFU C5orf56 (11738089_at) / Fold change /veh C5orf56 (11738089_at) / RFU CYB561 (11721691_x_at) / Fold change /veh CYB561 (11721691_x_at) / RFU ANKRD19P (11752326_a_at) / Fold change /veh ANKRD19P (11752326_a_at) / RFU OR2T12 /// OR2T33 /// OR2T8 (11738714_s_at) / Fold change /veh OR2T12 /// OR2T33 /// OR2T8 (11738714_s_at) / RFU VCAN (11748164_a_at) / Fold change /veh VCAN (11748164_a_at) / RFU JSRP1 (11732532_at) / Fold change /veh JSRP1 (11732532_at) / RFU KRTAP10-11 (11738290_x_at) / Fold change /veh KRTAP10-11 (11738290_x_at) / RFU MYO3A (11730013_a_at) / Fold change /veh MYO3A (11730013_a_at) / RFU EBF3 (11725865_a_at) / Fold change /veh EBF3 (11725865_a_at) / RFU CAMK2N1 (11719241_x_at) / Fold change /veh CAMK2N1 (11719241_x_at) / RFU C5orf56 (11738088_a_at) / Fold change /veh C5orf56 (11738088_a_at) / RFU OLFML3 (11715873_a_at) / Fold change /veh OLFML3 (11715873_a_at) / RFU LOC100653217 /// NTM (11731650_a_at) / Fold change /veh LOC100653217 /// NTM (11731650_a_at) / RFU MAPK11 (11762145_a_at) / Fold change /veh MAPK11 (11762145_a_at) / RFU FIZ1 (11724087_x_at) / Fold change /veh FIZ1 (11724087_x_at) / RFU OASL (11726364_x_at) / Fold change /veh OASL (11726364_x_at) / RFU SOX15 (11748057_x_at) / Fold change /veh SOX15 (11748057_x_at) / RFU CD79A (11719716_a_at) / Fold change /veh CD79A (11719716_a_at) / RFU HIST1H1D (11736915_at) / Fold change /veh HIST1H1D (11736915_at) / RFU CASKIN2 (11723855_a_at) / Fold change /veh CASKIN2 (11723855_a_at) / RFU LOC730098 (11760151_x_at) / Fold change /veh LOC730098 (11760151_x_at) / RFU OR4N2 (11742367_at) / Fold change /veh OR4N2 (11742367_at) / RFU PRRT2 (11749266_a_at) / Fold change /veh PRRT2 (11749266_a_at) / RFU SNX32 (11753110_a_at) / Fold change /veh SNX32 (11753110_a_at) / RFU CDHR5 (11726645_a_at) / Fold change /veh CDHR5 (11726645_a_at) / RFU RCAN1 (11760418_a_at) / Fold change /veh RCAN1 (11760418_a_at) / RFU FAM167A (11723789_a_at) / Fold change /veh FAM167A (11723789_a_at) / RFU FAM26E (11764081_at) / Fold change /veh FAM26E (11764081_at) / RFU ISYNA1 (11749810_s_at) / Fold change /veh ISYNA1 (11749810_s_at) / RFU ACY1 (11761880_at) / Fold change /veh ACY1 (11761880_at) / RFU 11764098_at / Fold change /veh 11764098_at / RFU SAMD14 (11745864_x_at) / Fold change /veh SAMD14 (11745864_x_at) / RFU NPB (11741838_a_at) / Fold change /veh NPB (11741838_a_at) / RFU TMPRSS6 (11731388_a_at) / Fold change /veh TMPRSS6 (11731388_a_at) / RFU KRTAP10-2 (11738614_at) / Fold change /veh KRTAP10-2 (11738614_at) / RFU ARHGAP8 /// PRR5-ARHGAP8 (11727945_x_at) / Fold change /veh ARHGAP8 /// PRR5-ARHGAP8 (11727945_x_at) / RFU KRTAP5-7 /// NADSYN1 (11734609_at) / Fold change /veh KRTAP5-7 /// NADSYN1 (11734609_at) / RFU RASL12 (11751679_a_at) / Fold change /veh RASL12 (11751679_a_at) / RFU CDKN2B (11736163_a_at) / Fold change /veh CDKN2B (11736163_a_at) / RFU PRF1 (11729649_at) / Fold change /veh PRF1 (11729649_at) / RFU, ZNF638 /// ZNF638-IT1 / Fold change vs veh, ZNF638 /// ZNF638-IT1 / RFU, PANK3 / Fold change vs veh, PANK3 / RFU, SH3YL1 / Fold change vs veh, SH3YL1 / RFU, ZEB2 / Fold change vs veh, ZEB2 / RFU, NRIP1 / Fold change vs veh, NRIP1 / RFU, PTTG1IP / Fold change vs veh, PTTG1IP / RFU, CAPN2 / Fold change vs veh, CAPN2 / RFU, MED14 / Fold change vs veh, MED14 / RFU, SNORA58 / Fold change vs veh, SNORA58 / RFU, C1orf63 / Fold change vs veh, C1orf63 / RFU, LRRFIP1 / Fold change vs veh, LRRFIP1 / RFU, NDUFAF7 / Fold change vs veh, NDUFAF7 / RFU, SLC12A2 / Fold change vs veh, SLC12A2 / RFU, IBTK / Fold change vs veh, IBTK / RFU, ESF1 / Fold change vs veh, ESF1 / Fold change vs veh, TMEM50B / RFU, TAOK1 / Fold change vs veh, TAOK1 / RFU, ACBD3 / Fold change vs veh, ACBD3 / RFU, TMA16 / Fold change vs veh, TMA16 / RFU, RWDD3 / Fold change vs veh, RWDD3 / RFU, BCAT1 / Fold change vs veh, BCAT1 / RFU, EDEM3 / Fold change vs veh, EDEM3 / RFU, TMEM33 / Fold change vs veh, TMEM33 / RFU, WDR75 / Fold change vs veh, WDR75 / RFU, AHCTF1 / Fold change vs veh, AHCTF1 / RFU, TFRC / Fold change vs veh, TFRC / RFU, ZDHHC17 / Fold change vs veh, ZDHHC17 / RFU, NOM1 / Fold change vs veh, NOM1 / RFU, ARL8B / Fold change vs veh, ARL8B / RFU, ZBTB11 / Fold change vs veh, ZBTB11 / RFU, TAMM41 / Fold change vs veh, TAMM41 / RFU, KIAA1704 /// LOC100996395 / Fold change vs veh, KIAA1704 /// LOC100996395 / RFU, ING1 / Fold change vs veh, ING1 / RFU, TRMT61B / Fold change vs veh, TRMT61B / RFU, FUBP3 / Fold change vs veh, FUBP3 / RFU, TP53 / Fold change vs veh, TP53 / RFU, TNKS2 / Fold change vs veh, TNKS2 / RFU, ZFP14 / Fold change vs veh, ZFP14 / RFU, ACTR2 / Fold change vs veh, ACTR2 / RFU, PPP3R1 / Fold change vs veh, PPP3R1 / RFU, PIK3R1 / Fold change vs veh, PIK3R1 / RFU, HNRNPA1 / Fold change vs veh, HNRNPA1 / RFU, RNF170 / Fold change vs veh, RNF170 / RFU, ZNF28 / Fold change vs veh, ZNF28 / RFU, RNGTT / Fold change vs veh, RNGTT / RFU, OGT / Fold change vs veh, OGT / RFU, BRD1 / Fold change vs veh, BRD1 / RFU, MARS / Fold change vs veh, MARS / RFU, ZNF655 / Fold change vs veh, ZNF655 / RFU, FAHD1 / Fold change vs veh, FAHD1 / RFU, BDP1 / Fold change vs veh, BDP1 / RFU, LRRCC1 / Fold change vs veh, LRRCC1 / RFU, ARID1A / Fold change vs veh, ARID1A / RFU, ZNF146 / Fold change vs veh, ZNF146 / RFU, ZNF330 / Fold change vs veh, ZNF330 / RFU, GPN3 / Fold change vs veh, GPN3 / RFU, C9orf123 / Fold change vs veh, C9orf123 / RFU, N4BP2L2 / Fold change vs veh, N4BP2L2 / RFU, ARFIP1 / Fold change vs veh, ARFIP1 / RFU, FAM179B / Fold change vs veh, FAM179B / RFU, BCL10 / Fold change vs veh, BCL10 / RFU, UHRF1BP1L / Fold change vs veh, UHRF1BP1L / RFU, BET1 / Fold change vs veh, BET1 / RFU, CNOT2 / Fold change vs veh, CNOT2 / RFU, ZNF268 / Fold change vs veh, ZNF268 / Fold change vs veh, ZNF507 / RFU, DGCR2 / Fold change vs veh, DGCR2 / RFU, WDSUB1 / Fold change vs veh, WDSUB1 / Fold change vs veh, HSP90B1 /// MIR3652 / RFU, ADSS / Fold change vs veh, ADSS / RFU, GK / Fold change vs veh, GK / RFU, ZNF148 / Fold change vs veh, ZNF148 / RFU, TAF9 / Fold change vs veh, TAF9 / RFU, SLC1A5 / Fold change vs veh, SLC1A5 / RFU, SLMO2 / Fold change vs veh, SLMO2 / RFU, ABCC4 / Fold change vs veh, ABCC4 / RFU, LOC101060439 /// RAP1B / Fold change vs veh, LOC101060439 /// RAP1B / RFU, RFX7 / Fold change vs veh, RFX7 / RFU, GTPBP10 / Fold change vs veh, GTPBP10 / RFU, CNEP1R1 / Fold change vs veh, CNEP1R1 / RFU, BIVM-ERCC5 /// ERCC5 / Fold change vs veh, BIVM-ERCC5 /// ERCC5 / RFU, ILF3 / Fold change vs veh, ILF3 / RFU 11762660_at / Fold change /veh 11762660_at / RFU VCAN (11757783_s_at) / Fold change /veh VCAN (11757783_s_at) / RFU DDX43 (11728927_at) / Fold change /veh DDX43 (11728927_at) / RFU KRT8 (11758188_x_at) / Fold change /veh KRT8 (11758188_x_at) / RFU NKD1 (11759106_at) / Fold change /veh NKD1 (11759106_at) / RFU SRD5A1 (11742802_a_at) / Fold change /veh SRD5A1 (11742802_a_at) / RFU TPSAB1 /// TPSB2 (11721975_s_at) / Fold change /veh TPSAB1 /// TPSB2 (11721975_s_at) / RFU GSTM3 (11746129_a_at) / Fold change /veh GSTM3 (11746129_a_at) / RFU IL23R (11737362_x_at) / Fold change /veh IL23R (11737362_x_at) / RFU TMEM51 (11727254_a_at) / Fold change /veh TMEM51 (11727254_a_at) / RFU PIWIL2 (11732686_x_at) / Fold change /veh PIWIL2 (11732686_x_at) / RFU ORM1 (11744905_x_at) / Fold change /veh ORM1 (11744905_x_at) / RFU CCDC152 (11743942_at) / Fold change /veh CCDC152 (11743942_at) / RFU ECM1 (11717891_a_at) / Fold change /veh ECM1 (11717891_a_at) / RFU IL23R (11748794_a_at) / Fold change /veh IL23R (11748794_a_at) / RFU TNFAIP8L3 (11732012_x_at) / Fold change /veh TNFAIP8L3 (11732012_x_at) / RFU MBOAT4 (11741988_at) / Fold change /veh MBOAT4 (11741988_at) / RFU 11764193_at / Fold change /veh 11764193_at / RFU TMEM53 (11763286_at) / Fold change /veh TMEM53 (11763286_at) / RFU MAGEB2 (11727129_at) / Fold change /veh MAGEB2 (11727129_at) / RFU TMEM200A (11744735_a_at) / Fold change /veh TMEM200A (11744735_a_at) / RFU CCDC152 (11751479_a_at) / Fold change /veh CCDC152 (11751479_a_at) / RFU FAM211A (11726209_a_at) / Fold change /veh FAM211A (11726209_a_at) / RFU RGS16 (11746705_a_at) / Fold change /veh RGS16 (11746705_a_at) / RFU VCAN (11755009_s_at) / Fold change /veh VCAN (11755009_s_at) / RFU RHOB (11743442_s_at) / Fold change /veh RHOB (11743442_s_at) / RFU RGS16 (11720943_a_at) / Fold change /veh RGS16 (11720943_a_at) / RFU RGS16 (11720944_at) / Fold change /veh RGS16 (11720944_at) / RFU, VPS4B / Fold change vs veh, VPS4B / RFU, CREB1 / Fold change vs veh, CREB1 / RFU, DNAJC13 / Fold change vs veh, DNAJC13 / RFU, GNAQ / Fold change vs veh, GNAQ / RFU, CDK5R1 / Fold change vs veh, CDK5R1 / RFU, ZRANB3 / Fold change vs veh, ZRANB3 / RFU, CUL4A / Fold change vs veh, CUL4A / RFU, CCNY / Fold change vs veh, CCNY / RFU, UFL1 / Fold change vs veh, UFL1 / RFU, COG3 / Fold change vs veh, COG3 / RFU, DIAPH2 / Fold change vs veh, DIAPH2 / RFU, SKA2 / Fold change vs veh, SKA2 / RFU, AFF3 / Fold change vs veh, AFF3 / RFU, LMF1 / Fold change vs veh, LMF1 / RFU, IPO11 / Fold change vs veh, IPO11 / RFU, DFFB / Fold change vs veh, DFFB / RFU, FOXP1 / Fold change vs veh, FOXP1 / RFU, CARD8 / Fold change vs veh, CARD8 / RFU, STRN3 / Fold change vs veh, STRN3 / RFU, ADK / Fold change vs veh, ADK / RFU, RASSF2 / Fold change vs veh, RASSF2 / RFU, WIPF1 / Fold change vs veh, WIPF1 / RFU, LARP1B / Fold change vs veh, LARP1B / RFU, RASA1 / Fold change vs veh, RASA1 / RFU, RB1 / Fold change vs veh, RB1 / RFU, PPFIA1 / Fold change vs veh, PPFIA1 / RFU, MAT2A / Fold change vs veh, MAT2A / RFU, CCT5 / Fold change vs veh, CCT5 / RFU, WDR92 / Fold change vs veh, WDR92 / RFU, CUX1 / Fold change vs veh, CUX1 / RFU, TTC7A / Fold change vs veh, TTC7A / RFU, TMEM135 / Fold change vs veh, TMEM135 / RFU, DEPTOR / Fold change vs veh, DEPTOR / RFU, CPM / Fold change vs veh, CPM / RFU, DNAJB6 / Fold change vs veh, DNAJB6 / RFU, CACNA2D3 / Fold change vs veh, CACNA2D3 / RFU, DTX4 / Fold change vs veh, DTX4 / RFU, TFCP2 / Fold change vs veh, TFCP2 / RFU, GMCL1 /// GMCL1P1 / Fold change vs veh, GMCL1 /// GMCL1P1 / RFU, AEBP2 / Fold change vs veh, AEBP2 / RFU, SNHG1 /// SNORD22 /// SNORD25 /// SNORD26 /// SNORD27 /// SNORD28 /// SNORD29 /// SNORD31 / Fold change vs veh, SNHG1 /// SNORD22 /// SNORD25 /// SNORD26 /// SNORD27 /// SNORD28 /// SNORD29 /// SNORD31 / Fold change (Aza/veh), C12orf56 (ProbeSet 11735607_a_at) / Fold change (ACY-1035/veh), C12orf56 (ProbeSet 11735607_a_at) / Fold change (Aza/veh), FGFR1OP (ProbeSet 11751329_s_at) / Fold change (ACY-1035/veh), FGFR1OP (ProbeSet 11751329_s_at) / Fold change (Aza/veh), VPS36 (ProbeSet 11739960_a_at) / Fold change (ACY-1035/veh), VPS36 (ProbeSet 11739960_a_at) / RFU SYPL1 (11715823_x_at) / Fold change /veh SYPL1 (11715823_x_at) / RFU IGFBP7 (11715501_s_at) / Fold change /veh IGFBP7 (11715501_s_at) / RFU REEP3 (11722064_at) / Fold change /veh REEP3 (11722064_at) / RFU IGLL1 (11728026_x_at) / Fold change /veh IGLL1 (11728026_x_at): dose or concentration left out as unconfirmed
Settings: ProbeSet 11719493_s_at; LIST B

For `Nc1ccc(-c2cccs2)cc1NC(=O)c1ccc2c(c1)cc(C1CC1)n2CCN1CCOCC1` [ACY-1035], the “RFU, TAF9” value was 511.51 RFU.
